For assay [1], the system named is peritoneal macrophages. Put plainly: Nitric oxide release by mouse peritoneal macrophages (Greiss reagent). The assay is classed as cell-based, C57BL/6 mice. The settings on record: in vitro. How it is done:
(§1) Peritoneal macrophages are harvested from C57BL/6 mice 72 hours after intraperitoneal injection of 1.5 ml of 4% protease peptone. The macrophages are then stimulated in vitro with medium alone, 50 ng LPS, or BRM. Measurements of the stimulation are performed with respect to TNF (by ELISA) and NO (by spectrophotometric assay using the Greiss reagent) levels in duplicate experiments.
In vitro synergy of BRM with LPS for nitric oxide (NO) is addressed in the same procedure as above, except NO is determined in the supernatant of the treated macrophages. As above, the assay for NO is spectrophotometric and uses a Greiss reagent.
In vitro synergy of BRM with IFN-γ for NO release is studied, using the same peritoneal mouse macrophages derived from C57BL/6 mice treated as above.

Assay [2] has as its system peritoneal macrophages. Put plainly: TNF-α release by mouse peritoneal macrophages (ELISA). The format is cell-based, C57BL/6 mice. Conditions: in vitro culture. How it is done: as §1
In vitro synergy of BRM with IFN-γ for TNF-α release is studied using the same peritoneal mouse macrophages derived from C57BL/6 mice treated as above. […] The same macrophages stimulated with either LPS or IFN-γ release almost 3000 pg/ml of TNF-α.

As for “IFN-γ: interferon gamma, conventional macrophage activator”, the “release of NO by macrophages, stimulus alone” value in assay [1] is “enhanced NO production”. In addition, the “release of TNF-α” value in assay [2] was about 3000 pg/mL.

The record behind these values is US20040198819A1, “Biological response modifier composition and uses thereof” (priority 2001, published 2004).
